Holding throughout (type): cell-based, human
For one data set, the system named is HALLMARK_MYC_TARGETS. Briefly: GSEA MYC targets, COLO320DM. The settings on record: si.CircPVT1 vs si.Ctrl. From the text: RNAseq processing: Raw reads were mapped to the hg19 human reference genome using the STAR aligner (v.2.5.0a) 66. PCR-duplicated reads and low mapping quality reads (MQ score below 20) were removed using Picard tools and SAMtools, respectively. Aligned reads were counted using htseq-count (v.0.6.1p1) 69 and normalized according to size factors method from DESeq2 70. We used fold change ≥2 and FDR <0.05 as the determination of differentially expressed genes (DEG). […]
Supplementary Figure 9: Gene set enrichment analysis scores (GSEA) analysis for MYC targets genes in COLODM320 (A,B) and SK-PN-DW (C,D) treated with si.CircPVT 1. si.Ctrl was used as control . n=3, for each treatment condition .
(also on this page, place not known: Enrichment Score Enrichment Score si.CircPVT1. control. condition. Enrichment Score Enrichment Score .CC-BY licenseavailable preprintthis https://doi.org/10.1101/2025.02.17.638454doi:) […]

The subject of a further data set is MYC targets genes. Briefly: GSEA MYC targets, D458. The conditions noted are these: D458, si.CircPVT1 vs si.Ctrl, n=3. From the text:
RNAseq processing: Raw reads were mapped to the hg19 human reference genome using the STAR aligner (v.2.5.0a) 66. PCR-duplicated reads and low mapping quality reads (MQ score below 20) were removed using Picard tools and SAMtools, respectively. Aligned reads were counted using htseq-count (v.0.6.1p1) 69 and normalized according to size factors method from DESeq2 70. We used fold change ≥2 and FDR <0.05 as the determination of differentially expressed genes (DEG). Statistical analysis and plots were performed inside R environment version 3.1.0. upload files)

The subject of data set [1] is HALLMARK_MTORC1_SIGNALING
As to the kind of experiment: GSEA MTORC1 signaling, COLO320DM. The conditions noted are these: si.CircPVT1 vs si.Ctrl, n=3, Padj = 0.0188. The text has this:
RNAseq processing: Raw reads were mapped to the hg19 human reference genome using the STAR aligner (v.2.5.0a) 66. PCR-duplicated reads and low mapping quality reads (MQ score below 20) were removed using Picard tools and SAMtools, respectively. Aligned reads were counted using htseq-count (v.0.6.1p1) 69 and normalized according to size factors method from DESeq2 70. We used fold change ≥2 and FDR <0.05 as the determination of differentially expressed genes (DEG). Statistical analysis and plots were performed inside R environment version 3.1.0. upload files) […]
bioRxiv preprint doi: https://doi.org/10.1101/2025.02.17.638454; this version posted February 22, 2025. The copyright holder for this preprint (which was not certified by peer review) is the author/funder, who has granted bioRxiv a license to display the preprint in perpetuity. It is made available under a CC-BY 4.0 International license . […]
Supplementary Figure 11: Gene set enrichment analysis scores (GSEA) analysis of genes involved in MTORC 1 signaling in COLO320DM (A) and SK-PN-DW (B) treated with si.CircPVT 1. si.Ctrl was used as control. n=3, for each treatment condition .
(also on this page, place not known: SK-PN-DWB MTORC1 si.CircPVT1. condition. Enrichment Score Enrichment Score .CC-BY licenseavailable preprintthis https://doi.org/10.1101/2025.02.17.638454doi:) […]

A further data set relates to MYC. Briefly: Western blot of MYC in SK-PN-DW. The conditions noted are these: si.CircPVT1 vs si.Ctrl, n=3, unpaired t test, 0.0049. How it is done: For whole-cell lysate, the cell pellet was resuspended in RIPA buffer (Cell Signaling Technologies, Danvers, MA) supplemented with a protease inhibitor cocktail (Cell Signaling Technologies) and incubated on ice for 20 minutes. The lysate was then centrifuged at 14,000 revolutions/minute for 10 minutes at 4°C, and the supernatant was harvested. Protein concentration was quantified by BCA Protein Assay Kit (Thermo Fisher Scientific) as per kit protocol. Next, 20 μg of whole-cell lysate was electrophoresed on a 4%–20% gradient polyacrylamide gel with SDS (Bio-Rad, Hercules, CA) and electroblotted onto polyvinylidene difluoride membranes (Bio-Rad). Membranes were blocked in Tris-buffered saline with 5% nonfat milk and 0.1% Tween and probed with antibodies. Bound proteins were detected with horseradish-peroxidase–conjugated secondary antibodies (Cell Signaling Technologies) and SuperSignal West Femto (Thermo Fisher Scientific). […]
(In general: Immunoblotting shows a protein as a band on a membrane.)

Experimental findings from doi:10.1101/2025.02.17.638454, “Synergistic RAS-MAPK and AKT Activation in MYC-Driven Tumors via Adjacent PVT1 Rearrangements” (bioRxiv, 2025) are described below.

As to “si.CircPVT1: siRNA targeting the junction sequence of CircPVT1, 5’-UGGGCUUGAGGCCUGAUCUUU-3’ (other strand not given here)”, the “NES, HALLMARK_MYC_TARGETS_V1” value in the data set on HALLMARK_MYC_TARGETS (n=3, Padj = 0.009) is reported as -1.990. Moreover, the “NES, HALLMARK_MYC_TARGETS_V2” value in the data set with HALLMARK_MYC_TARGETS (n=3, Padj = 0.017) is listed as -1.733. The “MYC targets (GSEA)” value in the data set with MYC targets genes is given as “depletion of MYC targets”. The “NES, HALLMARK_MTORC1_SIGNALING” value in data set [1] is on record as -1.506. For the same substance, in the data set with MYC, the MYC protein entry is recorded as “significant reduction of MYC protein”.
